Laboratory results: publication PMC8175350, “Drug repurposing screens identify chemical entities for the development of COVID-19 interventions” (Nature Communications, 2021)
pEC50: −log10 of the molar value. Where “and” joins values, the source holds several entries; their conditions need not be identical. Equal entries are not always repeated. Structures can show the parent of a compound that is named as a salt. Where two headings read alike, the source gives them in different places.

Tests used:
[1] = test system: SARS-CoV-2; assay type: cell-based
[2] = test system: HeLa-ACE2 cells; test: cells; details: Homo sapiens; for EC50: HeLa-ACE2, read-out: HeLa-ACE2 cell count EC50 GeoMean (µM), geometric mean of replicates; for Emax: HeLa-ACE2, 24 h, read-out: HeLa-ACE2 cell count Sinf Average; for pEC50: HeLa-ACE2, read-out: HeLa-ACE2 cell count EC50 GeoMean, unrounded geometric mean
[3] = in vitro; details: human
[4] = Uninfected HeLa-ACE2 24 h live/dead cytotoxicity counter screen; assay type: cell-based, human; details: human, uninfected HeLa-ACE2 cells
[5] = test system: HeLa-ACE2 cells; test: as above; assay type: cell-based, human; details: for HeLa-ACE2 uninfected cytotoxicity Sinf Average (%): Sinf average of the curves; for HeLa-ACE2 uninfected cytotoxicity Sinf Average: curve-fit effect at infinite concentration
[6] = test system: Calu-3 cells; test: Uninfected Calu-3 48 h Cell-Titer Glo cytotoxicity counter screen; details: for Calu-3 uninfected cytotoxicity Sinf Average (%): Sinf average of the curves; for Calu-3 uninfected cytotoxicity Sinf Average: curve-fit effect at infinite concentration
[7] = test system: SARS-CoV-2; test: microbe, parasite or virus in culture; assay type: cell-based; details: for Emax: Severe acute respiratory syndrome coronavirus 2, Calu-3, 48 h; for pEC50: read-out: Calu-3 CoV-2 EC50 GeoMean
[8] = test system: Calu-3 cells; test: cells; details: Homo sapiens; for Emax: Calu-3, 48 h; for EC50: Calu-3, read-out: Calu-3 cell count EC50 GeoMean (µM), geometric mean of replicates; for pEC50: Calu-3, read-out: Calu-3 cell count EC50 GeoMean, unrounded geometric mean
[9] = test system: SARS-CoV-2; test: microbe, parasite or virus in culture; assay type: cell-based; details: for pEC50: Severe acute respiratory syndrome coronavirus 2, HeLa-ACE2, read-out: HeLa-ACE2 CoV-2 EC50 GeoMean; for Emax: Severe acute respiratory syndrome coronavirus 2, HeLa-ACE2, 24 h, curve-fit effect at infinite concentration, average, read-out: HeLa-ACE2 CoV-2 Sinf Average
[10] = test system: Calu-3 cells; details: for Calu-3 uninfected cytotoxicity Sinf Average (%): human, 48 h
[11] = Calu-3 uninfected cytotoxicity CC50 GeoMean (µM), geometric mean of replicates
[12] = geometric mean of replicates, read-out: HeLa-ACE2 uninfected cytotoxicity CC50 GeoMean
[13] = Sinf average of the curves, read-out: Calu-3 CoV-2 Sinf Average (%)
[14] = Severe acute respiratory syndrome coronavirus 2, Calu-3, geometric mean of replicates
[15] = read-out: Calu-3 cell count Sinf Average (%)
[16] = Calu-3 uninfected cytotoxicity CC50 GeoMean, unrounded geometric mean
[17] = uninfected cells, Fig. 2b group, read-out: HeLa-ACE2 CC50
[18] = unrounded geometric mean, read-out: HeLa-ACE2 uninfected cytotoxicity CC50 GeoMean
[19] = curve-fit effect at infinite concentration, average, read-out: Calu-3 CoV-2 Sinf Average
[20] = Severe acute respiratory syndrome coronavirus 2, Calu-3, unrounded geometric mean
[21] = read-out: Calu-3 cell count Sinf Average
[22] = Calu-3 uninfected cytotoxicity CC50 GeoMean (µM)

| Compound | EC50 [2] | CC50 at 24 h [4, 12] | Emax [7, 13] | pEC50 [7, 14] | Emax [8, 15] | EC50 [8] | pEC50 ([9]; geometric mean of replicates) | Emax [2] | pEC50 [2] | CC50 [3, 16] | CC50 at 24 h [4, 17] | CC50 at 24 h [4, 18] | HeLa-ACE2 uninfected cytotoxicity Sinf Average [5] | Calu-3 uninfected cytotoxicity Sinf Average [6] | Emax [7, 19] | pEC50 [7, 20] | Emax [8, 21] | pEC50 [8] | Emax [9] | pEC50 ([9]; unrounded geometric mean) | further results |
| --- | --- | --- | --- | --- | --- | --- | --- | --- | --- | --- | --- | --- | --- | --- | --- | --- | --- | --- | --- | --- | --- |
| Nc1nc(N)c2nc(CCc3ccc(C(=O)N[C@@H](CCC(=O)O)C(=O)O)cc3)cnc2n1 [10-deazaaminopterin] | – | – | – | – | – | – | – | – | – | – | – | – | – | – | – | – | – | – | – | – | interaction with remdesivir ([1]; ZIP model): synergistic (synergistic effect: δ >10); dose-response point, normalized infected cells ([1]; alone, Concentration [uM] -9.01818): 8.312 and 15.4845 and 9.998; maximal efficacy ([1]; compound alone): 40%; maximal efficacy ([1]; with EC2 of remdesivir): ~65%; maximal efficacy ([1]; with EC24 of remdesivir): > 80% |
| CCOc1ccc(Cc2nc3cc(N(C)S(=O)(=O)c4cccs4)ccc3n2CC2CCCCC2)nc1 [AZ-11713908] | > 9.59 µM | > 33 µM | 93% | 5.45 | 100% | > 9.73 µM | < 5.02 | – | – | – | – | – | – | – | – | – | – | – | – | – | CC50 [3, 11]: > 29.9 µM; HeLa-ACE2 uninfected cytotoxicity Sinf Average (%) [5]: -100%; Calu-3 uninfected cytotoxicity Sinf Average (%) [6]: -95% |
| COC(=O)[C@@]12OC[C@]34[C@H]([C@@H](O)[C@@H]1O)[C@@]1(C)CC(=O)C(O)=C(C)[C@@H]1C[C@H]3OC(=O)[C@H](OC(=O)/C=C(\C)C(C)C)[C@@H]24 [Bruceantin] | – | – | – | – | – | – | – | 99% | 7.01 | 0.973 µM | ≤ 3 µM | < 0.117 µM | -100% | -53% | 99% | 7.71 | -100% | < 5.16 | 98% | 8.24 | – |
| CC[C@H]1CN2CCc3cc(OC)c(OC)cc3[C@@H]2C[C@@H]1C[C@H]1NCCc2cc(O)c(OC)cc21 [Cephaeline] | – | – | – | – | – | – | – | 107% | 6.51 | > 4.96 µM | ≤ 3 µM | 0.212 µM | -100% | -68% | 96% | 6.85 | 100% | < 5.16 | 99% | 7.78 | – |
| CO[C@H]1C[C@H](O[C@H]2CC[C@]3(C=O)[C@H]4CC[C@]5(C)[C@@H](C6=CC(=O)OC6)CC[C@]5(O)[C@@H]4CC[C@]3(O)C2)O[C@H](C)[C@H]1O [Cymarine] | – | – | – | – | – | – | – | 100% | 6.51 | > 5.87 µM | ≤ 3 µM | 0.287 µM | -95% | -40% | 87% | 6.87 | -100% | < 5.00 | 93% | 6.62 | – |
| O=C(Nc1ccc(Cl)c(S(=O)(=O)N2CCNCC2)c1O)Nc1cccc(F)c1Cl [Elubrixin tosylate] | > 9.59 µM | > 39.8 µM | 100% | 5.16 | 67% | > 9.98 µM | < 5.02 | – | – | – | – | – | – | – | – | – | – | – | – | – | CC50 at 48 h [3, 11]: > 29.6 µM; HeLa-ACE2 uninfected cytotoxicity Sinf Average (%) [5]: -100%; Calu-3 uninfected cytotoxicity Sinf Average (%) [6]: -100% |
| CC(=O)O[C@H]1C[C@H](O[C@H]2[C@@H](O)C[C@H](O[C@H]3[C@@H](O)C[C@H](O[C@H]4CC[C@@]5(C)[C@H](CC[C@@H]6[C@@H]5C[C@@H](O)[C@]5(C)[C@@H](C7=CC(=O)OC7)CC[C@]65O)C4)O[C@@H]3C)O[C@@H]2C)O[C@H](C)[C@H]1O[C@@H]1O[C@H](CO)[C@@H](O)[C@H](O)[C@H]1O [Lanatoside C] | – | – | – | – | – | – | – | 96% | 6.42 | > 6.21 µM | ≤ 3 µM | 1.35 µM | -101% | -28% | 86% | 6.71 | -33% | < 5.00 | 97% | 6.69 | – |
| O[C@@H]1CO[C@H]2[C@@H]1OC[C@H]2Oc1nc2nc(-c3ccc(-c4ccccc4)cc3)c(Cl)cc2[nH]1 [MK-8722] | > 9.59 µM | > 37.4 µM | 100% | 5.56 | 100% | > 5.66 µM | < 5.02 | – | – | – | – | – | – | – | – | – | – | – | – | – | uninfected Calu-3 CC50 [μM] [10]: > 29.867 ×÷ 1 (n=3) μM; Calu-3 uninfected cytotoxicity Sinf Average (%) [10]: -95%; CC50 at 48 h [3, 22]: > 29.9 µM; HeLa-ACE2 uninfected cytotoxicity Sinf Average (%) [5]: -100% |
| CC[C@@H]1/C=C/C=C/C[C@H](C)[C@@H](O)[C@](C)(O)C(=O)[C@H](C)[C@@H](O)[C@H](C)C(=O)[C@H](C)[C@@H](O)[C@H](C)/C=C/C(=O)O[C@H]2[C@@H](C)[C@@H](CC1)O[C@]1(O[C@H](C[C@H](C)O)[C@H](C)CC1=O)[C@@H]2C [Oligomycin B] | – | – | – | – | – | – | – | 100% | < 5.09 | > 24.5 µM | – | 22 µM | -100% | -89% | 93% | > 8.27 | 50% | < 6.51 | – | < 5.02 | – |
| CCCCCCCCCCCCCC(=O)O[C@@H]1[C@@H](C)[C@@]2(O)[C@@H](C=C(CO)C[C@]3(O)C(=O)C(C)=C[C@@H]23)[C@@H]2C(C)(C)[C@]12OC(C)=O [Phorbol 12-myristate 13-acetate] | – | – | – | – | – | – | – | – | < 5.02 | 22.5 µM | ≤ 3 µM | > 0.201 µM | -58% | -100% | 59% | 7.79 | 100% | < 5.00 | 40% | – | – |
| CC(C)(C)c1ccc(CSc2cnn(C(C)(C)C)c(=O)c2Cl)cc1 [Pyridaben] | > 9.59 µM | > 39.8 µM | 93% | 6.69 | 47% | 0.345 µM | < 5.02 | – | – | – | – | – | – | – | – | – | – | – | – | – | CC50 [3, 11]: > 8.99 µM; Calu-3 uninfected cytotoxicity Sinf Average (%) [6]: -94% |
| C=C(C)[C@]12C[C@@H](C)[C@@]34O[C@](Cc5ccccc5)(O[C@@H]1[C@@H]3C=C(COC(=O)Cc1ccc(O)c(OC)c1)C[C@]1(O)C(=O)C(C)=C[C@@H]41)O2 [Resiniferatoxin] | – | – | – | – | – | – | – | 100% | < 5.08 | 17.3 µM | – | 7.17 µM | -100% | -100% | 80% | 6.04 | 75% | < 5.54 | 75% | < 5.89 | – |
| O=c1[nH]ccc2cc(OC3CCNCC3)ccc12 [SAR-407899] | > 9.59 µM | > 38.7 µM | 54% | < 5.42 | 97% | 2.72 µM | < 5.02 | – | – | – | – | – | – | – | – | – | – | – | – | – | uninfected Calu-3 CC50 [μM] [10]: > 29.867 ×÷ 1 (n=3) μM; Calu-3 uninfected cytotoxicity Sinf Average (%) [10]: 0%; CC50 at 48 h [3, 22]: > 29.9 µM; HeLa-ACE2 uninfected cytotoxicity Sinf Average (%) [5]: -100% |
| Cn1c(C#N)ccc1-c1ccc2c(c1)C(C)(C)OC(=S)N2 [Tanaproget] | – | – | – | – | – | – | – | 100% | < 5.02 | – | ≤ 3 µM | 0.128 µM | -50% | -100% | 87% | 5.61 | 98% | < 5.00 | 49% | 6.85 | uninfected Calu-3 CC50 [10]: > 19.278 ×÷ 2.07 (n=3) μM; CC50 at 48 h ([3]; Calu-3 uninfected cytotoxicity CC50 GeoMean): > 19.3 µM |
| N6-isopentenyladenosine [Riboprine] | – | – | – | – | – | – | – | – | – | – | – | – | – | – | – | – | – | – | – | – | interaction with remdesivir [1]: synergistic (key: additive: Additive effect: -10< δ <10; synergistic effect: δ >10; antagonistic eff ect: δ <10); maximal efficacy [1]: 100% |
